Several values for one entry are separate records, joined by “and”; a condition that tells them apart may be missing. Identical values can stand only once. Inconclusive results and toxic doses are left out. Cut-off read from the data, not from the text of the source: active = T/C of 150% or more; inactive = T/C below 125%.
System: L1210 leukemia ip in BDF1 mice, survival T/C
Assay: NCI In Vivo Anticancer Drug Screen. Data for tumor model L1210 Leukemia (intraperitoneal) in B6D2F1 (BDF1) mice
Settings: endpoint: mean survival time, higher = longer survival
Procedure, shortened: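 Survival endpoint. Drug-treated group vs vehicle group, expressed as T divided by C. Tumor passaged by transplantation.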

[1] = dose: 100.0 mg/kg/injection, schedule: Q04DX002 (ip), vehicle: Klucel (hydroxypropylcellulose) (HPC)
[2] = dose: 200.0 mg/kg/injection, schedule: Q04DX002 (ip), vehicle: Klucel (hydroxypropylcellulose) (HPC)
[3] = dose: 100.0 mg/kg/injection, schedule: Q01DX001 (ip), vehicle: Klucel (hydroxypropylcellulose) (HPC)
[4] = dose: 100.0 mg/kg/injection, schedule: Q04DX003 (ip), vehicle: Klucel (hydroxypropylcellulose) (HPC)
[5] = dose: 200.0 mg/kg/injection, schedule: Q04DX003 (ip), vehicle: Klucel (hydroxypropylcellulose) (HPC)
[6] = dose: 400.0 mg/kg/injection, schedule: Q04DX003 (ip), vehicle: Klucel (hydroxypropylcellulose) (HPC)
[7] = dose: 100.0 mg/kg/injection, schedule: Q04DX003 (ip), vehicle: saline with Tween-80
[8] = dose: 200.0 mg/kg/injection, schedule: Q04DX003 (ip), vehicle: saline with Tween-80
[9] = dose: 400.0 mg/kg/injection, schedule: Q04DX003 (ip), vehicle: saline with Tween-80
[10] = dose: 25.0 mg/kg/injection, schedule: Q01DX009 (ip), vehicle: Klucel (hydroxypropylcellulose) (HPC)
[11] = dose: 50.0 mg/kg/injection, schedule: Q01DX009 (ip), vehicle: Klucel (hydroxypropylcellulose) (HPC)
[12] = dose: 100.0 mg/kg/injection, schedule: Q01DX009 (ip), vehicle: Klucel (hydroxypropylcellulose) (HPC)
[13] = dose: 200.0 mg/kg/injection, schedule: Q01DX009 (ip), vehicle: Klucel (hydroxypropylcellulose) (HPC)

Measured: T/C

O=C(Nc1cccc2ccccc12)Oc1ccc(C2CCCCC2)cc1
inactive: dose: 100.0 mg/kg/injection, schedule: Q01DX009 (ip), vehicle: carboxymethylcellulose (CMC) 97 % of control and 90 % of control | [1] 89 % of control | dose: 100.0 mg/kg/injection, schedule: Q04DX002 (ip), vehicle: carboxymethylcellulose (CMC) 100 % of control and 101 % of control | dose: 100.0 mg/kg/injection, schedule: Q04DX003 (ip), vehicle: carboxymethylcellulose (CMC) 101 % of control | dose: 200.0 mg/kg/injection, schedule: Q01DX009 (ip), vehicle: carboxymethylcellulose (CMC) 87 % of control and 92 % of control | [2] 96 % of control | dose: 200.0 mg/kg/injection, schedule: Q04DX002 (ip), vehicle: carboxymethylcellulose (CMC) 101 % of control and 90 % of control | dose: 200.0 mg/kg/injection, schedule: Q04DX003 (ip), vehicle: carboxymethylcellulose (CMC) 100 % of control | dose: 400.0 mg/kg/injection, schedule: Q01DX009 (ip), vehicle: carboxymethylcellulose (CMC) 97 % of control and 90 % of control | dose: 400.0 mg/kg/injection, schedule: Q04DX002 (ip), vehicle: Klucel (hydroxypropylcellulose) (HPC) 101 % of control | dose: 400.0 mg/kg/injection, schedule: Q04DX002 (ip), vehicle: carboxymethylcellulose (CMC) 95 % of control and 90 % of control | dose: 400.0 mg/kg/injection, schedule: Q04DX003 (ip), vehicle: carboxymethylcellulose (CMC) 92 % of control

COC(=O)/C(=C/c1ccccc1)CBr
inactive: dose: 50.0 mg/kg/injection, schedule: Q01DX009 (ip), vehicle: saline with Tween-80 94 % of control | dose: 100.0 mg/kg/injection, schedule: Q01DX009 (ip), vehicle: saline with Tween-80 102 % of control

OC(CCl)COc1ccccc1 (stereo unspecified)
inactive: dose: 100.0 mg/kg/injection, schedule: Q01DX009 (sc), vehicle: olive oil, sesame oil, peanut oil 91 % of control | dose: 100.0 mg/kg/injection, schedule: Q04DX002 (sc), vehicle: olive oil, sesame oil, peanut oil 101 % of control | dose: 200.0 mg/kg/injection, schedule: Q01DX009 (sc), vehicle: olive oil, sesame oil, peanut oil 105 % of control | dose: 200.0 mg/kg/injection, schedule: Q04DX002 (sc), vehicle: olive oil, sesame oil, peanut oil 104 % of control | dose: 400.0 mg/kg/injection, schedule: Q01DX009 (sc), vehicle: olive oil, sesame oil, peanut oil 94 % of control | dose: 400.0 mg/kg/injection, schedule: Q04DX002 (sc), vehicle: olive oil, sesame oil, peanut oil 96 % of control

COc1ccccc1/C=C(/C)[N+](=O)[O-]
inactive: dose: 100.0 mg/kg/injection, schedule: Q01DX001 (ip), vehicle: carboxymethylcellulose (CMC) 97 % of control | dose: 200.0 mg/kg/injection, schedule: Q01DX001 (ip), vehicle: carboxymethylcellulose (CMC) 97 % of control | dose: 400.0 mg/kg/injection, schedule: Q01DX001 (ip), vehicle: carboxymethylcellulose (CMC) 100 % of control

O=NN(CCCl)C(=O)Nc1ccc(S(=O)(=O)F)cc1
inactive: dose: 500.0 mg/kg/injection, schedule: Q01DX001 (ip), vehicle: carboxymethylcellulose (CMC) 110 % of control

O=C(O)C1CC(c2ccccc2)=C(c2ccccc2)CC1C(=O)O (stereo unspecified)
inactive: dose: 50.0 mg/kg/injection, schedule: Q04DX002 (ip), vehicle: Klucel (hydroxypropylcellulose) (HPC) 105 % of control | [1] 102 % of control and 114 % of control and 100 % of control | [2] 102 % of control and 100 % of control

C/C(=C/c1c(C)c([N+](=O)[O-])c(C)c(C)c1[N+](=O)[O-])C(=O)O
inactive: [3] 100 % of control | [4] 114 % of control | dose: 200.0 mg/kg/injection, schedule: Q01DX001 (ip), vehicle: Klucel (hydroxypropylcellulose) (HPC) 91 % of control | [5] 97 % of control | dose: 400.0 mg/kg/injection, schedule: Q01DX001 (ip), vehicle: Klucel (hydroxypropylcellulose) (HPC) 107 % of control | [6] 101 % of control

O=C1OC(=O)C2C3CC(C4OC34)C12 (stereo unspecified)
inactive: [7] 95 % of control | [8] 100 % of control | [9] 94 % of control

O=C(Nc1cccc(F)c1)Nc1nccs1
inactive: [10] 89 % of control | [11] 99 % of control | [12] 95 % of control and 97 % of control

COc1ccccc1NC(=S)N1CCC(CCCC2CCN(C(=S)Nc3ccccc3OC)CC2)CC1
inactive: [12] 92 % of control | [4] 91 % of control | [13] 87 % of control | [5] 89 % of control | [6] 88 % of control

Nc1nc(=S)c2[nH]c(N=Nc3ccc(S(=O)(=O)Nc4nccs4)cc3)nc2[nH]1
inactive: dose: 6.25 mg/kg/injection, schedule: Q01DX009 (ip), vehicle: Klucel (hydroxypropylcellulose) (HPC) 92 % of control | dose: 12.5 mg/kg/injection, schedule: Q01DX009 (ip), vehicle: Klucel (hydroxypropylcellulose) (HPC) 92 % of control | [10] 100 % of control | dose: 35.0 mg/kg/injection, schedule: Q01DX001 (ip), vehicle: Klucel (hydroxypropylcellulose) (HPC) 119 % of control | [3] 123 % of control | [12] 88 % of control

CCCCCCCCC/C(C)=N\NC(=O)c1ccccc1
inactive: [4] 105 % of control | [5] 92 % of control | [6] 97 % of control

O=S1(=O)C(c2ccccc2)=Cc2cccn2-c2ccccc21
inactive: [4] 95 % of control | [5] 104 % of control | [6] 98 % of control

N#CCN1Cc2ccccc2CCc2ccccc2C1
inactive: [11] 103 % of control | [12] 108 % of control | [4] 100 % of control | [13] 107 % of control | [5] 96 % of control

O=C(/C=C/C(=O)N1CCOCC1)N1CCOCC1
inactive: [7] 100 % of control | [8] 104 % of control | [9] 116 % of control

Cc1ccc(NC(=O)COc2ccc(C)cc2C)cc1
inactive: dose: 100.0 mg/kg/injection, schedule: Q04DX002 (ip), vehicle: gum acacia 95 % of control | dose: 200.0 mg/kg/injection, schedule: Q04DX002 (ip), vehicle: gum acacia 89 % of control

COc1ccc(/C(=N\O)C(c2ccc(OC)cc2)C(Cl)(Cl)Cl)cc1 (stereo unspecified)
inactive: [12] 92 % of control | [13] 95 % of control | dose: 400.0 mg/kg/injection, schedule: Q01DX009 (ip), vehicle: Klucel (hydroxypropylcellulose) (HPC) 97 % of control

O=C(O)CCc1ccncc1
inactive: dose: 100.0 mg/kg/injection, schedule: Q04DX002 (ip), vehicle: saline 100 % of control | dose: 200.0 mg/kg/injection, schedule: Q04DX002 (ip), vehicle: saline 122 % of control | dose: 400.0 mg/kg/injection, schedule: Q04DX002 (ip), vehicle: saline 103 % of control

C1CSC(SCCSC2=NCCS2)=N1
inactive: dose: 62.5 mg/kg/injection, schedule: Q01DX009 (ip), vehicle: carboxymethylcellulose (CMC) 89 % of control | dose: 125.0 mg/kg/injection, schedule: Q01DX009 (ip), vehicle: carboxymethylcellulose (CMC) 100 % of control | dose: 250.0 mg/kg/injection, schedule: Q01DX009 (ip), vehicle: carboxymethylcellulose (CMC) 96 % of control

CCOc1ccn(CC(=O)N2CCOCC2)c(=O)n1
inactive: dose: 100.0 mg/kg/injection, schedule: Q01DX009 (ip), vehicle: water 93 % of control | dose: 100.0 mg/kg/injection, schedule: Q04DX003 (ip), vehicle: water 105 % of control | dose: 200.0 mg/kg/injection, schedule: Q01DX009 (ip), vehicle: water 95 % of control | dose: 200.0 mg/kg/injection, schedule: Q04DX003 (ip), vehicle: water 100 % of control | dose: 400.0 mg/kg/injection, schedule: Q01DX009 (ip), vehicle: water 98 % of control | dose: 400.0 mg/kg/injection, schedule: Q04DX003 (ip), vehicle: water 95 % of control
